The test system of the assay is production of TNF by monocytes activated with bacterial lipopolysaccharide (LPS). As to the kind of experiment: Lipopolysaccharide-activated monocyte TNF production assay. In kind it is cell-based. Particulars: Homo sapiens; whole blood monocyte assay (LPS induced TNF release). In outline:
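Adherent human PBMC-derived monocytes preincubated 60 min with nine two-fold compound dilutions, then stimulated with E. coli K532 LPS (30 ng/mL in the added medium) for 4 h at 37 °C. Supernatant TNF measured by sandwich ELISA; IC50 is the compound concentration halving TNF production, from second-order polynomial fits.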

41 molecules from US7759337B2, “Phthalazine compounds and methods of use” (Amgen Inc., priority 2005, dated 2010) can be followed below.

pIC50: −log10 of the molar value.

As usually defined, the pIC50 is the IC50 on a negative log10 scale, so that one unit is a factor of ten. The low end stands for a large IC50, the high end for a small IC50. `Cc1ccc(C(=O)NC2CC2)cc1-c1ccc2c(Cl)nncc2c1` [Example 164, 3-(1-chlorophthalazin-6-yl)-N-cyclopropyl-4-methylbenzamide]: the pIC50 is ≥ 5.30.

Regarding `Cc1ccc(C(N)=O)cc1-c1ccc2c(OCC(C)(C)C)nncc2c1` [Example 315, 4-methyl-3-[1-(neopentyloxy)phthalazin-6-yl]benzamide], the negative-log IC50 (pIC50) was ≥ 5.30.

`COc1nncc2cc(-c3cc(C(=O)NC4CC4)ccc3C)ccc12` [Example 169, N-cyclopropyl-3-(1-methoxyphthalazin-6-yl)-4-methylbenzamide]: the pIC50 is ≥ 5.30.

Turning to `Cc1cc(F)ccc1Oc1nncc2cc(-c3cc(C(=O)NC4CC4)ccc3C)ccc12` [Example 305, N-cyclopropyl-3-[1-(4-fluoro-2-methylphenoxy)phthalazin-6-yl]-4-methylbenzamide], the pIC50 was ≥ 5.30.

Regarding `COCCN(C)c1nncc2cc(-c3cc(C(=O)NC4CC4)ccc3C)ccc12` [Example 188, N-cyclopropyl-3-{1-[(2-methoxyethyl)(methyl)amino]phthalazin-6-yl}-4-methylbenzamide], the pIC50 was ≥ 5.30.

For `Cc1ccccc1-c1ccc2c(-c3ccccc3C)nncc2c1` [Example 386, 1,6-bis(2-methylphenyl)phthalazine], the pIC50 was ≥ 5.30.

As to `CCN(CC)CCNc1nncc2cc(-c3cc(C(=O)NC4CC4)ccc3C)ccc12` [Example 186, N-cyclopropyl-3-(1-{[2-(diethylamino)ethyl]amino}phthalazin-6-yl)-4-methylbenzamide], the pIC50 is ≥ 5.30.

On to `Cc1ccc(C(=O)NC2CC2)cc1-c1ccc2c(N3CCC[C@@H]3C)nncc2c1` [Example 295, N-cyclopropyl-4-methyl-3-{1-[(2S)-2-methylpyrrolidin-1-yl]phthalazin-6-yl}benzamide], for which the negative logarithm of the IC50 (pIC50) was ≥ 5.30.

For `COc1ccc(-c2nncc3cc(-c4cc(C(=O)NC5CC5)ccc4C)ccc23)c(C)n1` [Example 207, N-cyclopropyl-3-[1-(6-methoxy-2-methylpyridin-3-yl)phthalazin-6-yl]-4-methylbenzamide], the pIC50 was ≥ 5.30.

Take `Cc1ccc(C(=O)NC2CC2)cc1-c1ccc2c(N3CCNC(=O)[C@@H]3C)nncc2c1` [Example 271, N-cyclopropyl-4-methyl-3-{1-[(2S)-2-methyl-3-oxopiperazin-1-yl]phthalazin-6-yl}benzamide]: the pIC50 was ≥ 5.30.

Consider `CC[C@H](C)Nc1nncc2cc(-c3c(C)ccc4c(NC)noc34)ccc12` [Example 365, 6-[6-methyl-3-(methylamino)-1,2-benzisoxazol-7-yl]-N-[(1S)-1-methylpropyl]phthalazin-1-amine], for which the negative-log IC50 (pIC50) is ≥ 5.30.

`Cc1ccc(C(N)=O)cc1-c1ccc2c(OC3CCCN(C)C3)nncc2c1` (centres unmarked) [Example 316, 4-methyl-3-{1-[(1-methylpiperidin-3-yl)oxy]phthalazin-6-yl}benzamide]: the negative-log IC50 (pIC50) is ≥ 5.30.

For the molecule `COc1ccc(-c2nncc3cc(-c4cc(C(N)=O)ccc4C)ccc23)c(C)c1` [Example 202, 3-[1-(4-methoxy-2-methylphenyl)phthalazin-6-yl]-4-methylbenzamide], the pIC50 was ≥ 5.30.

As to `Cc1ccc(C(N)=O)cc1-c1ccc2c(OC3CCCCC3)nncc2c1` [Example 311, 3-[1-(cyclohexyloxy)phthalazin-6-yl]-4-methylbenzamide], the pIC50 was ≥ 5.30.

As to `Cc1ccc(C(=O)NC2CC2)cc1-c1ccc2c(NC(C)(C)C)nncc2c1` [Example 327, 3-[1-(tert-butylamino)phthalazin-6-yl]-N-cyclopropyl-4-methylbenzamide], the pIC50 was ≥ 5.30.

Turning to `COc1ncccc1-c1ccc2c(-c3cccnc3OC)nncc2c1` [Example 375, 1,6-bis(2-methoxypyridin-3-yl)phthalazine], the pIC50 is ≥ 5.30.

Consider `Cc1cc(F)c(C(=O)NC2CC2)cc1-c1ccc2c(N3C[C@@H](C)OC[C@H]3C)nncc2c1` [Example 135, N-cyclopropyl-5-{1-[(2R,5R)-2,5-dimethylmorpholin-4-yl]phthalazin-6-yl}-2-fluoro-4-methylbenzamide], for which the pIC50 was ≥ 5.30.

With `Cc1ccc(C(N)=O)cc1-c1ccc2c(Cl)nncc2c1` [Example 145, 3-(1-chlorophthalazin-6-yl)-4-methylbenzamide], the negative-log IC50 (pIC50) is ≥ 5.30.

For the molecule `C[C@H]1COCCN1c1nncc2cc(-c3c(Cl)ccc4c(NCC(F)(F)F)noc34)ccc12` [Example 400, 6-chloro-7-{1-[(3S)-3-methylmorpholin-4-yl]phthalazin-6-yl}-N-(2,2,2-trifluoroethyl)-1,2-benzisoxazol-3-amine], the pIC50 was ≥ 5.30.

Consider `Cc1cc(C(=O)O)sc1-c1ccc2c(N3CCOCC3)nncc2c1` [Example 47, 4-methyl-5-(1-morpholinophthalazin-6-yl)thiophene-2-carboxylic acid], for which the pIC50 was ≥ 5.30.

In the case of `Cc1ccc(Oc2ccc3c(-c4ccccc4C)nncc3c2)cc1` [Example 332, 6-(4-methylphenoxy)-1-(2-methylphenyl)phthalazine], the pIC50 is ≥ 5.30.

Take `Cc1ccc(C(=O)NC2CC2)cc1-c1ccc2c(-c3cccnc3Cl)nncc2c1` [Example 233, 3-[1-(2-chloropyridin-3-yl)phthalazin-6-yl]-N-cyclopropyl-4-methylbenzamide]: the pIC50 was ≥ 5.30.

On to `Cc1ccc(C(=O)NC2CC2)cc1-c1ccc2c(N3CCCC(C(N)=O)C3)nncc2c1` (centres unmarked) [Example 29, 1-(6-(5-(cyclopropylcarbamoyl)-2-methylphenyl)phthalazin-1-yl)piperidine-3-carboxamide], for which the negative logarithm of the IC50 (pIC50) is ≥ 5.30.

For `Cc1ccc(C(=O)NC2CC2)cc1-c1ccc2c(-c3cccnc3C)nncc2c1` [Example 241, N-cyclopropyl-4-methyl-3-[1-(2-methylpyridin-3-yl)phthalazin-6-yl]benzamide], the pIC50 is ≥ 5.30.

Take `Cc1ccc(C(=O)NC2CC2)cc1-c1ccc2c(N)nncc2c1` [Example 141, 3-(1-aminophthalazin-6-yl)-N-cyclopropyl-4-methylbenzamide]: the negative-log IC50 (pIC50) is ≥ 5.30.

As for `CCOC(=O)N1CCN(c2nncc3cc(-c4cc(C(=O)NC5CC5)ccc4C)ccc23)[C@@H](C)C1` [Example 379, ethyl(3S)-4-(6-{5-[(cyclopropylamino)carbonyl]-2-methylphenyl}phthalazin-1-yl)-3-methylpiperazine-1-carboxylate], the pIC50 was ≥ 5.30.

`Cc1ccc(C(N)=O)cc1-c1ccc2c(-c3ccc([S+](C)[O-])cc3C)nncc2c1` (centres unmarked) [Example 243, 4-methyl-3-{1-[2-methyl-4-(methylsulfinyl)phenyl]phthalazin-6-yl}benzamide]: the pIC50 was ≥ 5.30.

In the case of `CC[C@H](C)Nc1nncc2cc(-c3cc(C(=O)NC4CC4)ccc3C)ccc12` [Example 298, N-cyclopropyl-4-methyl-3-(1-{[(1S)-1-methylpropyl]amino}phthalazin-6-yl)benzamide], the negative-log IC50 (pIC50) is ≥ 5.30.

Turning to `Cc1ccc(C(N)=O)cc1-c1ccc2c(N3C[C@@H]4C[C@H]3CO4)nncc2c1` [Example 115, 4-methyl-3-{1-[(1S,4S)-2-oxa-5-azabicyclo[2.2.1]hept-5-yl]phthalazin-6-yl}benzamide], the pIC50 was ≥ 5.30.

Take `COC[C@H](C)Nc1nncc2cc(-c3cc(C(=O)NC4CC4)ccc3C)ccc12` [Example 192, N-cyclopropyl-3-(1-{[(1S)-2-methoxy-1-methylethyl]amino}phthalazin-6-yl)-4-methylbenzamide]: the negative-log IC50 (pIC50) was ≥ 5.30.

With `Cc1ccc(C(=O)NC2CC2)cc1-c1ccc2c(-c3cccs3)nncc2c1` [Example 244, N-cyclopropyl-4-methyl-3-(1-thien-2-ylphthalazin-6-yl)benzamide], the negative logarithm of the IC50 (pIC50) is ≥ 5.30.

Take `Cc1ccc(C(N)=O)cc1-c1ccc2c(-c3ccc(S(C)(=O)=O)cc3)nncc2c1` [Example 214, 4-methyl-3-{1-[4-(methylsulfonyl)phenyl]phthalazin-6-yl}benzamide]: the negative logarithm of the IC50 (pIC50) is ≥ 5.30.

On to `CNc1noc2c(-c3ccc4c(-c5cccnc5C)nncc4c3)c(C)ccc12` [Example 247, N,6-dimethyl-7-[1-(2-methylpyridin-3-yl)phthalazin-6-yl]-1,2-benzisoxazol-3-amine], for which the pIC50 is ≥ 5.30.

For `Cc1ccc(C(=S)NC2CC2)cc1-c1ccc2c(N3CCOCC3)nncc2c1` [Example 109, N-Cyclopropyl-4-methyl-3-(1-morpholinophthalazin-6-yl)benzothioamide], the negative-log IC50 (pIC50) is ≥ 5.30.

For the molecule `Cc1ccc(C(N)=O)cc1-c1ccc2c(Oc3ccc(F)cc3F)nncc2c1` [Example 304, 3-[1-(2,4-difluorophenoxy)phthalazin-6-yl]-4-methylbenzamide], the pIC50 was ≥ 5.30.

As to `CCOC(=O)c1ccc(C)c(-c2ccc3c(NC(C)C)nncc3c2)c1` [Example 138, ethyl 3-[1-(isopropylamino)phthalazin-6-yl]-4-methylbenzoate], the pIC50 was ≥ 5.30.

Consider `Cc1ccc(C(=O)NC2CC2)cc1-c1ccc2c(-c3ccc(Cl)cc3C(F)(F)F)nncc2c1` [Example 210, 3-{1-[4-chloro-2-(trifluoromethyl)phenyl]phthalazin-6-yl}-N-cyclopropyl-4-methylbenzamide], for which the negative-log IC50 (pIC50) is ≥ 5.30.

Turning to `Cc1ccc2c(NC3CC3)noc2c1-c1ccc2c(N3CCOCC3)nncc2c1` [Example 388, N-cyclopropyl-6-methyl-7-(1-morpholin-4-ylphthalazin-6-yl)-1,2-benzisoxazol-3-amine], the negative-log IC50 (pIC50) was ≥ 5.30.

In the case of `Cc1ccc(C(N)=O)cc1-c1ccc2c(NCCO)nncc2c1` [Example 407, 3-{1-[(2-hydroxyethyl)amino]phthalazin-6-yl}-4-methylbenzamide], the negative-log IC50 (pIC50) was ≥ 5.30.

For the molecule `CNC(=O)c1ccc(C)c(-c2ccc3c(NC(C)C)nncc3c2)c1` [Example 10, 3-(1-(isopropylamino)phthalazin-6-yl)-N,4-dimethylbenzamide], the pIC50 is ≥ 5.30.

`Cc1ccc(C(N)=O)cc1-c1ccc2c(N3[C@H](C)CC[C@H]3C)nncc2c1` [Example 394, 3-{1-[(2R,5R)-2,5-dimethylpyrrolidin-1-yl]phthalazin-6-yl}-4-methylbenzamide]: the pIC50 is ≥ 5.30.
